Assay results published in US20250120420A1, “FEED ADDITIVE FOR IMPROVING ANIMAL PERFORMANCE, DIGESTION AND INTESTINAL HEALTH AND RELATED METHODS” (priority 2023, published 2025).
Marks after values point to notes of the source that are not given here.

What was measured:
[1] = system: laying hens; assay: Laying hen trial, two-by-two factorial xylanase / COS, 60 days; assay type: in vivo, HiSex laying hens
Method: The researchers combined xylanase and COS in a two-by-two factorial design study in order to investigate the impact of combining xylanase and COS on animal intestinal health, and specifically the microbiome. Materials and Methods: The effects of dietary supplementation of a combination of xylanase/COS (prototype or “[…]”) were evaluated in a laying hen trial over a duration of 60 days. A total of 40 HiSex laying hens were used in this experiment, with four diets and 10 replicates per diet. Dosages were determined based on extrapolation of the in vitro cell culture data. Laying hens were allocated into four different groups: (T1) Control; […] (T3) xylanase alone, using […] Industries, Inc.); (T4) and a combination of xylanase and COS. The diets were based on wheat ( 55%), soybean and sunflower meal.

[2] = system: broilers; assay: Broiler trial, xylanase/COS dose response, 35 days, zootechnical performance; assay type: in vivo
Method: The researchers performed a study in growing poultry, in which xylanase and COS were combined in a dose response study in order to study the impact of combining xylanase and COS on poultry growth.
Materials and Methods: The effects of dietary supplementation of a combination of xylanase/COS were evaluated in a broiler trial over a duration of 35 days. A total of 1200 Ross broilers were used in this experiment, with five diets and 12 replicates per diet.

[3] = Grower phase, 15-35 days of age
[4] = Starter phase, 0-14 days of age

Substance: beta 1-4, endo-xylanase enzyme [Xygest HT]
- Albumin Height ([1]; End of Phase 1): 7.1 a mm
- Egg Shell Thickness ([1]; End of Phase 1): 0.397 a mm
- Haugh Unit (HU) ([1]; End of Phase 1): 84.3 a
- Shell Breaking Strength ([1]; End of Phase 1): 4.6 a kg · force
- Yolk Color Score (DSM method) ([1]; End of Phase 1): 5.3 a
- Yolk Diameter ([1]; End of Phase 1): 43.2 mm
- Yolk Height ([1]; End of Phase 1): 18.7 mm
- Yolk Index ([1]; End of Phase 1): 0.44
- Albumin Height ([1]; End of Phase 2): 7.9 a mm
- Egg Shell Thickness ([1]; End of Phase 2): 0.428 a mm
- Haugh Unit (HU) ([1]; End of Phase 2): 88.7 a
- Shell Breaking Strength ([1]; End of Phase 2): 4.7 ab kg · force
- Yolk Color Score (DSM method) ([1]; End of Phase 2): 6.7 a
- Yolk Diameter ([1]; End of Phase 2): 44.2 mm
- Yolk Height ([1]; End of Phase 2): 18.3 ab mm
- Yolk Index ([1]; End of Phase 2): 0.42 a
- Egg mass, % Improvement compared to the control treatment ([1]; laying hens, 60 days): 0.91%
- Egg weight, % Improvement compared to the control treatment ([1]; laying hens, 60 days): 0.58%
- FCR, % Improvement compared to the control treatment ([1]; laying hens, 60 days): −0.07%
- laying percentage compared to the control group (in words) ([1]; laying hens, 60 days): significant increase
- nutrient digestibility (in words, FIG. 6-11) ([1]; laying hens, 60 days): Even a better effect
- ADFI ([2]; Global trial, 0-35 days of age): 87.2 g/day
- FCR ([2]; Global trial, 0-35 days of age): 1.51^ab
- M-ADFI (mortality adjusted mean daily feed intake) ([2]; Global trial, 0-35 days of age): 86.8 g/day
- M-ADG (mortality adjusted mean daily gain) ([2]; Global trial, 0-35 days of age): 57.5^a g/d
- M-FCR (Mortality adjusted feed:gain) ([2]; Global trial, 0-35 days of age): 1.51^ab
- ADFI [2, 3]: 123.7 g/day
- ADG [2, 3]: 80.0^a g/d
- FCR [2, 3]: 1.55^ab
- M-ADFI (mortality adjusted mean daily feed intake) [2, 3]: 123.3 g/day
- M-ADG (mortality adjusted mean daily gain) [2, 3]: 79.9^a g/d
- M-FCR (Mortality adjusted feed:gain) [2, 3]: 1.54^ab
- ADFI [2, 4]: 32.9 g/day
- ADG [2, 4]: 24.5 g/day
- FCR [2, 4]: 1.35
- M-ADFI (mortality adjusted mean daily feed intake) [2, 4]: 32.8 g/day
- M-ADG (mortality adjusted mean daily gain) [2, 4]: 24.4 g/day
- M-FCR (Mortality adjusted feed:gain) [2, 4]: 1.34^ab
- Body weight ([2]; broilers, 14 days of age): 386 g
